Data as given in ChEMBL document CHEMBL4219178, “Synthesis of (aminoalkyl)cycleanine analogues: cytotoxicity, cellular uptake, and apoptosis induction in ovarian cancer cells” (Bioorg Med Chem Lett, 2018).
Active and inactive are the calls of the source. No cut-off for these calls is given here.

Assays:
[1] = Selectivity index, ratio of IC50 for human ovarian epithelial cells to IC50 for human IGROV1 cells; format: toxicity; conditions: human ovarian epithelial cells versus IGROV1 cells, read-out: Ratio IC50
IGROV-1 [2] = experiment: Antiproliferative activity against human IGROV1 cells after 72 hrs by SRB assay; format: functional, cell-based; conditions: IGROV-1, 72 h
[3] = Selectivity index, ratio of IC50 for human ovarian epithelial cells to IC50 for human A2780 cells; format: toxicity; conditions: human ovarian epithelial cells versus A2780 cells, read-out: Ratio IC50
[4] = Selectivity index, ratio of IC50 for human ovarian epithelial cells to IC50 for human OVCAR8 cells; format: toxicity; conditions: human ovarian epithelial cells versus OVCAR8 cells, read-out: Ratio IC50
[5] = Cytotoxicity against human ovarian epithelial cells assessed as reduction in cell viability after 72 hrs by SRB assay; format: cell-based
OVCAR-8 [6] = experiment: Antiproliferative activity against human OVCAR8 cells after 72 hrs by SRB assay; format: functional, cell-based; conditions: OVCAR-8, 72 h
[7] = Drug uptake in human OVCAR8 cells at 20 uM after 48 hrs by Alexa 488 azide dye-based confocal fluorescence microscopy; format: ADME, cell-based; conditions: ovcar-8, 48 h
A2780 [8] = experiment: Antiproliferative activity against human A2780 cells after 72 hrs by SRB assay; format: functional, cell-based; conditions: A2780, 72 h
OVCAR-8 [9] = experiment: Induction of apoptosis in human OVCAR8 cells assessed as late apoptotic cells at 20 uM after 48 hrs by Annexin V-FITC/propidium iodide based flow cytometry (reference value: 5%); format: functional
A2780 [10] = experiment: Induction of apoptosis in human A2780 cells assessed as induction of caspase 3/7 activity at 20 uM incubated for 48 hrs by caspase-Glo 3/7 reagent based luminescence assay; format: functional, cell-based
OVCAR-8 [11] = experiment: Cell cycle arrest in human OVCAR8 cells assessed as decrease in G0/G1 phase at 20 uM after 48 hrs by propidium iodide based flow cytometry; format: functional
IGROV-1 [12] = experiment: Induction of apoptosis in human IGROV1 cells assessed as induction of caspase 3/7 activity at 20 uM incubated for 48 hrs by caspase-Glo 3/7 reagent based luminescence assay; format: functional, cell-based
OVCAR-8 [13] = experiment: Induction of apoptosis in human OVCAR8 cells assessed as cell shrinkage at 10 to 20 uM incubated for 24 to 48 hrs by phase contrast light microscopy; format: functional, cell-based
OVCAR-8 [14] = experiment: Induction of apoptosis in human OVCAR8 cells assessed as early apoptotic cells at 20 uM after 48 hrs by Annexin V-FITC/propidium iodide based flow cytometry (reference value: 4%); format: functional
OVCAR-8 [15] = experiment: Induction of apoptosis in human OVCAR8 cells assessed as viable cells at 20 uM after 48 hrs by Annexin V-FITC/propidium iodide based flow cytometry (reference value: 84%); format: functional; conditions: OVCAR-8, 48 h, read-out: Activity
OVCAR-8 [16] = experiment: Induction of apoptosis in human OVCAR8 cells assessed as cell detachment at 10 to 20 uM incubated for 24 to 48 hrs by phase contrast light microscopy; format: functional, cell-based
OVCAR-8 [17] = experiment: Induction of apoptosis in human OVCAR8 cells assessed as induction of PARP-1 cleavage at 20 uM after 48 hrs by Western blot; format: functional, cell-based
OVCAR-8 [18] = experiment: Induction of apoptosis in human OVCAR8 cells assessed as nucleus condensation at 10 to 20 uM incubated for 24 to 48 hrs by phase contrast light microscopy; format: functional, cell-based
OVCAR-8 [19] = experiment: Induction of apoptosis in human OVCAR8 cells assessed as induction of caspase 3/7 activity at 20 uM incubated for 48 hrs by caspase-Glo 3/7 reagent based luminescence assay; format: functional, cell-based
OVCAR-8 [20] = experiment: Cell cycle arrest in human OVCAR8 cells assessed as accumulation at subG1 phase at 20 uM after 48 hrs by propidium iodide based flow cytometry; format: functional

| IC50 (OVCAR-8 [6]) | IC50 (A2780 [8]) | Compound | selectivity ratio [1] | IC50 (IGROV-1 [2]) | selectivity ratio [3] | selectivity ratio [4] | IC50 [5] | Drug uptake [7] | Activity (OVCAR-8 [9]) | Activity (A2780 [10]) | Activity (OVCAR-8 [11]) | Activity (IGROV-1 [12]) | Activity (OVCAR-8 [13]) | Activity (OVCAR-8 [14]) | viability at 20 µM (OVCAR-8 [15]) | Activity (OVCAR-8 [16]) | Activity (OVCAR-8 [17]) | Activity (OVCAR-8 [18]) | Activity (OVCAR-8 [19]) | Activity (OVCAR-8 [20]) |
| --- | --- | --- | --- | --- | --- | --- | --- | --- | --- | --- | --- | --- | --- | --- | --- | --- | --- | --- | --- | --- |
| 5.2 µM | 3.6 µM | COc1cc2c3c(c1OC)Oc1ccc(cc1)C[C@@H]1c4c(c(CN(C)C)c(OC)c(OC)c4Oc4ccc(cc4)C[C@H]3N(C)CC2)CCN1C | 2 | 4.4 µM | 3 | 2 | 10 µM | – | 25% | Active | Active | Active | Active | 13% | 51% | Active | Active | Active | Active | Active |
| 5.6 µM | 6.3 µM | C#CCNCc1c2c3c(c(OC)c1OC)Oc1ccc(cc1)C[C@@H]1c4c(cc(OC)c(OC)c4Oc4ccc(cc4)C[C@H]3N(C)CC2)CCN1C | 5 | 6.1 µM | 5 | 6 | 32 µM | Active | 38% | Active | Active | Active | Active | 11% | 50% | Active | Active | Active | Active | Active |

| Compound | IC50 (OVCAR-8 [6]) | IC50 (A2780 [8]) | selectivity ratio [1] | IC50 (IGROV-1 [2]) | selectivity ratio [3] | selectivity ratio [4] | IC50 [5] | Drug uptake [7] | Activity (OVCAR-8 [9]) | Activity (A2780 [10]) | Activity (OVCAR-8 [11]) | Activity (IGROV-1 [12]) | Activity (OVCAR-8 [13]) | Activity (OVCAR-8 [14]) | viability at 20 µM (OVCAR-8 [15]) | Activity (OVCAR-8 [16]) | Activity (OVCAR-8 [17]) | Activity (OVCAR-8 [18]) | Activity (OVCAR-8 [19]) | Activity (OVCAR-8 [20]) |
| --- | --- | --- | --- | --- | --- | --- | --- | --- | --- | --- | --- | --- | --- | --- | --- | --- | --- | --- | --- | --- |
| COc1cc2c3c(c1OC)Oc1ccc(cc1)C[C@@H]1c4c(cc(OC)c(OC)c4Oc4ccc(cc4)C[C@H]3N(C)CC2)CCN1C | 10 µM | 7.6 µM | 3 | 14 µM | 5 | 3 | 35 µM | Not Active | – | – | – | – | – | – | – | – | – | – | – | – |
